Results from PubChem BioAssay (NCI).
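Growth conditions: 96-well plates. Treatment: test compound, 48 hours, 5 concentrations. Analysis: linear interpolation between bracketing concentrations; unreached endpoints set to highest concentration. Definition used: TGI = concentration required for complete inhibition of growth.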

Tests used:
Experiment in all cases: NCI anticancer screen, dose series, 48 h
HS 578T breast = system: HS 578T breast
NCI/ADR-RES ovarian = system: NCI/ADR-RES ovarian
A498 renal = system: A498 renal
SF-268 CNS = system: SF-268 CNS
NCI-H226 lung = system: NCI-H226 lung
SW-620 colon = system: SW-620 colon
BT-549 breast = system: BT-549 breast
HL-60(TB) leukemia = system: HL-60(TB) leukemia
CCRF-CEM leukemia = system: CCRF-CEM leukemia
M14 melanoma = system: M14 melanoma
UO-31 renal = system: UO-31 renal
OVCAR-8 ovarian = system: OVCAR-8 ovarian
MDA-MB-231 breast = system: MDA-MB-231 breast
MDA-MB-435 = system: MDA-MB-435
RXF 393 renal = system: RXF 393 renal
LOX IMVI melanoma = system: LOX IMVI melanoma
OVCAR-4 ovarian = system: OVCAR-4 ovarian
UACC-62 melanoma = system: UACC-62 melanoma
SNB-75 CNS = system: SNB-75 CNS
RPMI-8226 leukemia = system: RPMI-8226 leukemia
SK-MEL-28 melanoma = system: SK-MEL-28 melanoma
SN12C renal = system: SN12C renal
SK-OV-3 ovarian = system: SK-OV-3 ovarian
SK-MEL-2 melanoma = system: SK-MEL-2 melanoma
HOP-92 NSCLC = system: HOP-92 NSCLC
OVCAR-5 ovarian = system: OVCAR-5 ovarian
K-562 leukemia = system: K-562 leukemia
MOLT-4 leukemia = system: MOLT-4 leukemia
IGROV1 ovarian = system: IGROV1 ovarian
SR leukemia = system: SR leukemia
T-47D breast = system: T-47D breast
COLO 205 colon = system: COLO 205 colon
NCI-H23 lung = system: NCI-H23 lung
UACC-257 melanoma = system: UACC-257 melanoma
786-0 renal = system: 786-0 renal
HOP-62 NSCLC = system: HOP-62 NSCLC
ACHN renal = system: ACHN renal
PC-3 prostate = system: PC-3 prostate
SK-MEL-5 melanoma = system: SK-MEL-5 melanoma
HT29 colon = system: HT29 colon
HCC-2998 colon = system: HCC-2998 colon
CAKI-1 renal = system: CAKI-1 renal
HCT-15 colon = system: HCT-15 colon
A549 NSCLC = system: A549 NSCLC
MCF7 breast = system: MCF7 breast
MDA-N = system: MDA-N
MALME-3M melanoma = system: MALME-3M melanoma
OVCAR-3 ovarian = system: OVCAR-3 ovarian
KM12 colon = system: KM12 colon
SF-539 CNS = system: SF-539 CNS
SNB-19 CNS = system: SNB-19 CNS
TK-10 renal = system: TK-10 renal
NCI-H522 lung = system: NCI-H522 lung
U251 CNS = system: U251 CNS
SF-295 CNS = system: SF-295 CNS
DU-145 prostate = system: DU-145 prostate
NCI-H460 lung = system: NCI-H460 lung
EKVX NSCLC = system: EKVX NSCLC
HCT-116 colon = system: HCT-116 colon
DMS 114 small cell lung = system: DMS 114 small cell lung
DMS 273 small cell lung = system: DMS 273 small cell lung
LXFL 529 NSCLC = system: LXFL 529 NSCLC
DLD-1 colon = system: DLD-1 colon
M19-MEL melanoma = system: M19-MEL melanoma

Work on `Cc1cc2c(cc1C)C(=O)c1ncccc1C2=O` yielded a TGI (HS 578T breast) greater than 100 µM, a TGI (NCI/ADR-RES ovarian) of 70.8 µM and a TGI (A498 renal) greater than 100 µM. The TGI (SF-268 CNS) was greater than 100 µM, the TGI (NCI-H226 lung) was greater than 100 µM and the TGI (SW-620 colon) was greater than 100 µM. It also gave a TGI (BT-549 breast) greater than 100 µM, a TGI (HL-60(TB) leukemia) of 30.6 µM and a TGI (CCRF-CEM leukemia) greater than 100 µM. For the same compound, the TGI (M14 melanoma) was greater than 100 µM, the TGI (UO-31 renal) was greater than 100 µM and the TGI (OVCAR-8 ovarian) was greater than 100 µM. It also gave a TGI (MDA-MB-231 breast) of 67.1 µM, a TGI (MDA-MB-435) of 34.4 µM and a TGI (RXF 393 renal) greater than 100 µM. For the same compound, the TGI (LOX IMVI melanoma) was greater than 100 µM, the TGI (OVCAR-4 ovarian) was greater than 100 µM and the TGI (UACC-62 melanoma) was greater than 100 µM. For the same compound, the TGI (SNB-75 CNS) was greater than 100 µM, the TGI (RPMI-8226 leukemia) was greater than 100 µM and the TGI (SK-MEL-28 melanoma) was greater than 100 µM. The TGI (SN12C renal) was greater than 100 µM, the TGI (SK-OV-3 ovarian) was greater than 100 µM and the TGI (SK-MEL-2 melanoma) was greater than 100 µM. It also gave a TGI (HOP-92 NSCLC) greater than 100 µM, a TGI (OVCAR-5 ovarian) greater than 100 µM and a TGI (K-562 leukemia) greater than 100 µM. The TGI (MOLT-4 leukemia) was 74.2 µM, the TGI (IGROV1 ovarian) was greater than 100 µM and the TGI (SR leukemia) was 25 µM. It also gave a TGI (T-47D breast) greater than 100 µM, a TGI (COLO 205 colon) of 82.4 µM and a TGI (NCI-H23 lung) of 50.9 µM. The TGI (UACC-257 melanoma) was 46.3 µM, the TGI (786-0 renal) was greater than 100 µM and the TGI (HOP-62 NSCLC) was greater than 100 µM. For the same compound, the TGI (ACHN renal) was greater than 100 µM, the TGI (PC-3 prostate) was greater than 100 µM and the TGI (SK-MEL-5 melanoma) was 23.2 µM. It also gave a TGI (HT29 colon) greater than 100 µM, a TGI (HCC-2998 colon) greater than 100 µM and a TGI (CAKI-1 renal) greater than 100 µM. For the same compound, the TGI (HCT-15 colon) was greater than 100 µM, the TGI (A549 NSCLC) was greater than 100 µM and the TGI (MCF7 breast) was greater than 100 µM. For the same compound, the TGI (MDA-N) was 36.2 µM, the TGI (MALME-3M melanoma) was 52.9 µM and the TGI (OVCAR-3 ovarian) was 9.65 µM. For the same compound, the TGI (KM12 colon) was greater than 100 µM, the TGI (SF-539 CNS) was 90 µM and the TGI (SNB-19 CNS) was greater than 100 µM. For the same compound, the TGI (TK-10 renal) was greater than 100 µM, the TGI (NCI-H522 lung) was 43.9 µM and the TGI (U251 CNS) was greater than 100 µM. The TGI (SF-295 CNS) was greater than 100 µM, the TGI (DU-145 prostate) was greater than 100 µM and the TGI (NCI-H460 lung) was greater than 100 µM. For the same compound, the TGI (EKVX NSCLC) was greater than 100 µM and the TGI (HCT-116 colon) was 61.1 µM.

`CCOC(=O)[C@H](Cc1ccccc1)NC(=O)c1nc[nH]c1[N+](=O)[O-]` gave a TGI (A498 renal) greater than 100 µM, a TGI (SF-268 CNS) greater than 100 µM and a TGI (NCI-H226 lung) greater than 100 µM. The TGI (SW-620 colon) was greater than 100 µM, the TGI (HL-60(TB) leukemia) was greater than 100 µM and the TGI (CCRF-CEM leukemia) was greater than 100 µM. It also gave a TGI (M14 melanoma) greater than 100 µM, a TGI (UO-31 renal) greater than 100 µM and a TGI (OVCAR-8 ovarian) greater than 100 µM. The TGI (LOX IMVI melanoma) was greater than 100 µM, the TGI (OVCAR-4 ovarian) was greater than 100 µM and the TGI (UACC-62 melanoma) was greater than 100 µM. The TGI (SNB-75 CNS) was greater than 100 µM, the TGI (RPMI-8226 leukemia) was greater than 100 µM and the TGI (SK-MEL-28 melanoma) was greater than 100 µM. For the same compound, the TGI (SN12C renal) was greater than 100 µM, the TGI (SK-OV-3 ovarian) was greater than 100 µM and the TGI (SK-MEL-2 melanoma) was greater than 100 µM. For the same compound, the TGI (K-562 leukemia) was greater than 100 µM, the TGI (MOLT-4 leukemia) was greater than 100 µM and the TGI (IGROV1 ovarian) was greater than 100 µM. For the same compound, the TGI (SR leukemia) was greater than 100 µM, the TGI (COLO 205 colon) was greater than 100 µM and the TGI (NCI-H23 lung) was greater than 100 µM. For the same compound, the TGI (UACC-257 melanoma) was greater than 100 µM, the TGI (786-0 renal) was greater than 100 µM and the TGI (HOP-62 NSCLC) was greater than 100 µM. The TGI (ACHN renal) was greater than 100 µM, the TGI (SK-MEL-5 melanoma) was greater than 100 µM and the TGI (HT29 colon) was greater than 100 µM. For the same compound, the TGI (HCC-2998 colon) was greater than 100 µM, the TGI (CAKI-1 renal) was greater than 100 µM and the TGI (HCT-15 colon) was greater than 100 µM. The TGI (A549 NSCLC) was greater than 100 µM, the TGI (MALME-3M melanoma) was greater than 100 µM and the TGI (DMS 114 small cell lung) was greater than 100 µM. For the same compound, the TGI (DMS 273 small cell lung) was greater than 100 µM, the TGI (OVCAR-3 ovarian) was greater than 100 µM and the TGI (KM12 colon) was greater than 100 µM. For the same compound, the TGI (SF-539 CNS) was greater than 100 µM, the TGI (LXFL 529 NSCLC) was greater than 100 µM and the TGI (SNB-19 CNS) was greater than 100 µM. For the same compound, the TGI (TK-10 renal) was greater than 100 µM, the TGI (NCI-H522 lung) was greater than 100 µM and the TGI (U251 CNS) was greater than 100 µM. It also gave a TGI (DLD-1 colon) greater than 100 µM, a TGI (SF-295 CNS) greater than 100 µM and a TGI (M19-MEL melanoma) greater than 100 µM. It also gave a TGI (NCI-H460 lung) greater than 100 µM, a TGI (EKVX NSCLC) greater than 100 µM and a TGI (HCT-116 colon) greater than 100 µM.

Compound `COC(OC)C1(c2ccccc2)Oc2ccccc2C1=O` (stereo not drawn) has a TGI (HS 578T breast) greater than 100 µM, a TGI (NCI/ADR-RES ovarian) greater than 100 µM and a TGI (A498 renal) greater than 100 µM. It also gave a TGI (SF-268 CNS) greater than 100 µM, a TGI (NCI-H226 lung) greater than 100 µM and a TGI (SW-620 colon) greater than 100 µM. The TGI (BT-549 breast) was greater than 100 µM, the TGI (HL-60(TB) leukemia) was greater than 100 µM and the TGI (CCRF-CEM leukemia) was greater than 100 µM. It also gave a TGI (M14 melanoma) greater than 100 µM, a TGI (OVCAR-8 ovarian) greater than 100 µM and a TGI (MDA-MB-231 breast) greater than 100 µM. The TGI (MDA-MB-435) was greater than 100 µM, the TGI (RXF 393 renal) was greater than 100 µM and the TGI (LOX IMVI melanoma) was greater than 100 µM. For the same compound, the TGI (OVCAR-4 ovarian) was greater than 100 µM, the TGI (UACC-62 melanoma) was greater than 100 µM and the TGI (SNB-75 CNS) was greater than 100 µM. It also gave a TGI (RPMI-8226 leukemia) greater than 100 µM, a TGI (SK-MEL-28 melanoma) greater than 100 µM and a TGI (SN12C renal) greater than 100 µM. The TGI (SK-OV-3 ovarian) was greater than 100 µM, the TGI (SK-MEL-2 melanoma) was greater than 100 µM and the TGI (HOP-92 NSCLC) was greater than 100 µM. For the same compound, the TGI (OVCAR-5 ovarian) was greater than 100 µM, the TGI (K-562 leukemia) was greater than 100 µM and the TGI (MOLT-4 leukemia) was greater than 100 µM. It also gave a TGI (IGROV1 ovarian) greater than 100 µM, a TGI (SR leukemia) greater than 100 µM and a TGI (T-47D breast) greater than 100 µM. It also gave a TGI (COLO 205 colon) greater than 100 µM, a TGI (NCI-H23 lung) greater than 100 µM and a TGI (UACC-257 melanoma) greater than 100 µM. The TGI (786-0 renal) was greater than 100 µM, the TGI (HOP-62 NSCLC) was greater than 100 µM and the TGI (ACHN renal) was greater than 100 µM. For the same compound, the TGI (PC-3 prostate) was greater than 100 µM, the TGI (SK-MEL-5 melanoma) was greater than 100 µM and the TGI (HT29 colon) was greater than 100 µM. For the same compound, the TGI (HCC-2998 colon) was greater than 100 µM, the TGI (CAKI-1 renal) was greater than 100 µM and the TGI (HCT-15 colon) was greater than 100 µM. For the same compound, the TGI (A549 NSCLC) was greater than 100 µM, the TGI (MCF7 breast) was greater than 100 µM and the TGI (MDA-N) was greater than 100 µM. It also gave a TGI (MALME-3M melanoma) greater than 100 µM, a TGI (OVCAR-3 ovarian) greater than 100 µM and a TGI (KM12 colon) greater than 100 µM. It also gave a TGI (SF-539 CNS) greater than 100 µM, a TGI (SNB-19 CNS) greater than 100 µM and a TGI (TK-10 renal) greater than 100 µM. For the same compound, the TGI (NCI-H522 lung) was greater than 100 µM, the TGI (U251 CNS) was greater than 100 µM and the TGI (SF-295 CNS) was greater than 100 µM. The TGI (DU-145 prostate) was greater than 100 µM, the TGI (NCI-H460 lung) was greater than 100 µM and the TGI (EKVX NSCLC) was greater than 100 µM. For the same compound, the TGI (HCT-116 colon) was greater than 100 µM.
